Results on 1 molecule are retold here after PMC9652379, “Safety evaluations of a synthetic antimicrobial peptide administered intravenously in rats and dogs” (Scientific Reports, 2022).

The data set has as its system rats. As to the kind of experiment: Respiratory function in rats (whole body plethysmography). In kind it is in vivo, rat. The settings on record: rats, 15 mg/kg single iv injection, positive control. The protocol:
The possible side-effects of SET-M33 on respiratory function were evaluated after administration of the peptide as a single intravenous bolus at doses of 5, 9 and 15 mg/kg with vehicle (eight animals/group). Respiratory rate, tidal volume and minute volume were assessed. As in the case of neurological toxicity and the 4-week toxicity study, again the dose levels were selected on the basis DRF (above). Baclofen, a muscle relaxer and antispasmodic used to treat muscle pain, spasms and stiffness in people with multiple sclerosis or spinal cord injury or disease, was used as positive control. It was administered as a single intravenous injection at a dose of 15 mg/kg.
Whole body, bias flow plethysmography equipment was used[51]. Respiratory parameters (respiratory rate, tidal volume and minute volume) were derived from the changes in pressure associated with the warming and humidification of the air breathed in by the animal. This was monitored by specific probes located in the plethysmograph chambers. Bias flow (room air) was set at approximately 2.5 L/min. On a day prior to the first day of dosing, all animals were habituated to the plethysmographs for approximately 2 h. The study was run over 4 days and 10 animals (two from each group) were examined each day. On the day of dosing, the animals were placed in the plethysmographs for pre-dose recording (session 1) of respiratory parameters for 60 min. Groups of 8 rats were then removed from the chambers and dosed by intravenous bolus injection with vehicle, SET-M33 or positive control. Immediately after dosing, the rats were placed in the whole body plethysmographs, where they could move about freely, to continuously record respiratory parameters for 4 h post-dose (undisturbed recording). Immediately after the last post-dose recording, the animals were killed humanely by a rising concentration of carbon dioxide. Death was confirmed by dislocation of the neck. Respiratory parameters were reported at the following time points: 0, 30, 60, 90, 120, 150, 180, 210 and 240 min. Time 0 coincided with the mean value of the last 20 min of data recorded in the 60-min pre-dose period. All other time points were the mean of 10-min recordings (an average of every 10 breaths) around each time point. Each post-dose time point was analysed separately by analysis of covariance. Factors in the model were group and day of data collection, with pre-dose values as covariate.

Consider `NCC(CC(=O)O)c1ccc(Cl)cc1` (centres unmarked) [Baclofen, reference compound], for which the “respiratory rate vs vehicle” value was “sharp, statistically significant decrease”; the “tidal volume and minute volume vs vehicle” value was “sharp, statistically significant increases”.
